# Measured values from patent US11827624B2, “Covalent immune recruiter compounds for immune cell recognition and associated uses” (McMaster University, priority 2020, dated 2023).
# Experiments:
# [1] = test system: PSMA+HEK cells; test: Two-colour flow cytometry ADCP (CD64) assay with mmAb on PSMA+HEK cells; format: cell-based, human
# Excerpt: (§1) ADCP flow cytometry experiments were run on a BD LSRII Flow Cytometer. The human IgG isotype control used was purchased from Jackson ImmunoResearch (009-000-003). The human IgG1 monoclonal anti-DNP antibody (mAb) was purchased from acrobiosystems (DNP-M2). PSMA expression was confirmed with an anti-PSMA antibody Alexa 647 conjugate (Novus Biologicals, Catalog #FAB4234R). For PSMA competition controls, PMPA was purchased from Sigma (SML1612). Hek-293T (PSMA+/−) cell lines were generously given by Dr. Cyril Barinka (Institute of Biotechnology CAS, Czech Republic). U937 cells were generously given by Dr. John Valliant (McMaster University, Canada). LNCaP cells were generously given by Dr. Karen Mossman (McMaster University, Canada). IFN-γ was purchased from Fischer Scientific (PHC4031). Ultra low IgG FBS was purchased from Fischer Scientific (A3381901). RPMI-1640 was purchased as a powder from Fischer Scientific (31800089) and resuspended. DMEM was purchased as a powder from Fischer Scientific (12800082) and resuspended. […]
# (§2) For preparation of effector monocytes, 24 hours prior to inducing phagocytosis U937 monocytes were seeded at 500,000 cells/mL and activated with IFN-γ ([…]). After incubation, these cells were then counted and washed twice with serum free assay media (neat RPMI). […] These cells were then counted and washed twice with serum free assay media (neat RPMI). […]
# [2] = test system: PSMA+LNCaP cells; test: Flow cytometry ADCP assay with mmAb on LNCaP cells; format: cell-based, human
# Excerpt: as §1, §2
smiles,measurement,setting,value
O=C(O)CC[C@H](NC(=O)N[C@@H](CCCCNC(=O)NCCOCCOCCOCCOCCOCCOCCOCCOC(=O)n1cnc(CCNC(=O)CNc2ccc([N+](=O)[O-])cc2[N+](=O)[O-])c1)C(=O)O)C(=O)O [CIR 3],CD64 based target immune recognition (phagocytosis),[1],only provided a functional enhancement relative to ARM 11 at low antibody concentrations
same,ADCP on LNCaP target cells,[2],significant functional advantage compared to non-covalent recruitment across all antibody concentrations tested
